This note sets out measurements from patent US20080312140A1, “Compositions and Methods for Preventing or Treating Hiv Infection” (priority 2005, published 2008).

Where two headings read alike, the source gives them in different places. No end group written: not given here.

For this assay, the system named is infection of CD4+ human cells (CD4 expressing Hela P4 cells) by HIV-1. The format is cell-based. Conditions: for IC50: FIG. 3; for relative infection inhibition activity within the peptide set: peptides assayed at 100 μg/ml, FIG. 2 / FIG. 6. As to the method: Biological Activity Results of C2 peptide analogs Cell Infection Inhibition Assay The assay consisted of CD4 expressing Hela P4 cells containing the […] reporter gene placed downstream the HIV-LTR promotor. These cells, were seeded 24 hours prior to viral infection at a density of 5×10^5 […] in 24 well culture plates (TPP model by Beyneix). 50 μL of virus solution prepared from CEM infected cells' supernatant, were incubated for 1 hour with the assayed peptides at the required concentrations, at 4° C. 10 μg of anti CD4 monoclonal antibodies 13B8.2 or Leu3A were used as control. After incubation the virus solution was diluted to a total volume of 1 ml and was added to the Hela P4 cells. The cells were incubated at these conditions for 3 days after which their infection rate was assayed according to the […] activity in the cells extract.
The cells were washed well, harvested and disintegrated in a buffer containing 60 mM Na2HPO4, 40 mM NaH2PO4, 10 mM KCl, 1 mM MgSO4, 50 mM β-mercaptoethanol, 2.5 mM EDTA, 0.125% NP40, 0.125% triton, 20% glycerol, 0.2 mM PMSF and 100 U/ml approtinin. The cells extract was cleaned by centrifuge at 4° C. for 15 min at 13,000 rpm. β-galactosidase activity was determined by incubation of 150 μL of total cell extract at 37° C. for 2 hours in the presence of 6 mM ONPG (O-Nitrophenyl-β-D-galactopyranoside) in a buffer containing 80 mM Na2HPO4, 1 mM β-mercaptoethanol and 10 mMMgCl2, followed by absorption measurement at 410 nm. The β-galactosidase activity was normalized according to the total protein quantity in the assay.
This figure includes, for comparison, the inhibition of the lead peptide C2-1, as determined in the cell infection inhibition assay.

Where [1] appears, read: average of peptides C2-2 and C2-3, Hela P4 cells, read-out: average IC50 value.

With `N=C(N)NCCC[C@@H]1NC(=O)CCC(=O)N[C@@H](CCC(N)=O)C(=O)NCC(=O)N[C@@H](CO)C(=O)N[C@@H](Cc2ccccc2)C(=O)N(CC(N)=O)CCNC1=O` [Peptide C2-1], the “relative infection inhibition activity within the peptide set” value is “most active”. The IC50 (commonly the concentration needed to halve the response being measured) (CD4 expressing Hela P4 cells, several concentrations, read-out: IC50 (infection inhibition)) stood at 33 µM.

As to `N=C(N)NCCC[C@@H]1NC(=O)CCCC(=O)N[C@@H](CCC(N)=O)C(=O)NCC(=O)N[C@@H](CO)C(=O)N[C@@H](Cc2ccccc2)C(=O)N(CC(N)=O)CCNC1=O` [Peptide C2-2], the “relative infection inhibition activity within the peptide set” value is “most active”. Further, the concentration for half-maximal inhibition (IC50) under setting [1] is 81 ± 2 µM.

On to `N=C(N)NCCC[C@@H]1NC(=O)CCCCC(=O)N[C@@H](CCC(N)=O)C(=O)NCC(=O)N[C@@H](CO)C(=O)N[C@@H](Cc2ccccc2)C(=O)N(CC(N)=O)CCNC1=O` [Peptide C2-3], for which the “relative infection inhibition activity within the peptide set” value is listed as “most active”. Under setting [1], the IC50 worked out at 81 ± 2 µM.

The compound “C3-19: backbone cyclic C3 peptide of Scheme 1 (SEQ ID NO:7) (RQGSGF; also: backbone cyclic) [Peptide C3-19]” yielded an inhibition of infection (C3 peptides, FIG. 6: assayed at 100 μg/ml, mean of 3 assays, text: C3-25 at 100 μM) of 64±12%.
